Test results reported in patent US7404943B2, “Methods for solubilizing and recovering fluorinated compounds” (The Regents of the University of California, priority 2001, dated 2008).

Test: Visual observation of solubility in organic solvent with and without CO2 pressure (windowed vessel)
Type: physicochemical
Conditions: 35° C.; for solubility in cyclohexane / solubility in CO2-expanded cyclohexane: 64 mg in 5 mL cyclohexane; for solubility in cyclohexane: 1 atm CO2, visual; for solubility in CO2-expanded cyclohexane: CO2 pressure 59 bar
Experimental: The bis(methanol) adduct of complex 2 (Rh2(O2C(CF2)9F)4(MeOH)2, 64 mg) was placed in a windowed vessel along with a stir bar and 5 mL of cyclohexane, all at 35° C. […] The CO2 under these conditions is not supercritical and in the absence of the cyclohexane would not be liquid. […] When the CO2 pressure was released (slowly, so that the solvent was not lost by entrainment), then the liquid phase returned to its original volume and colour and the complex precipitated. The IR spectrum of the solid was identical to that of the original Rh2(O2C(CF2)9F)4(MeOH)2.
The IR spectrum of the complex after precipitation is identical to that of the starting material. […] For example, complex 3 was insoluble in toluene at 26° C., dissolved in CO2-expanded toluene at 54 bar CO2 and was subsequently precipitated after CO2 release.

[1] = listed as Rh2(O2C(CF2)9F)4(MeOH)2

For `CO.CO.O=C([O-])C(F)(F)C(F)(F)C(F)(F)C(F)(F)C(F)(F)C(F)(F)C(F)(F)C(F)(F)C(F)(F)F.O=C([O-])C(F)(F)C(F)(F)C(F)(F)C(F)(F)C(F)(F)C(F)(F)C(F)(F)C(F)(F)C(F)(F)F.O=C([O-])C(F)(F)C(F)(F)C(F)(F)C(F)(F)C(F)(F)C(F)(F)C(F)(F)C(F)(F)C(F)(F)F.O=C([O-])C(F)(F)C(F)(F)C(F)(F)C(F)(F)C(F)(F)C(F)(F)C(F)(F)C(F)(F)C(F)(F)F.[Rh+3].[Rh+3]` [bis(methanol) adduct of complex 2, Rh2(O2C(CF2)9F)4(MeOH)2], the solubility in cyclohexane was “completely insoluble”, the solubility in cyclohexane [1] was “insoluble” and the “solubility in CO2-expanded cyclohexane” value was “complete dissolution”. For the same compound, the “solubility in CO2-expanded cyclohexane” value [1] was “dissolves readily” and the “solubility in gaseous CO2 (upper phase)” value (59 bar CO2, upper gaseous phase showed no discoloration) was “no solubility”.
